Experimental data taken from patent publication US20070128217A1 (priority 2003, published 2007).

Assays:
[1] = tested on: antibodies in sera from SARS patients (sera 1a, 1b, 2, 6, 37, 62, London, SARS-yellow, SARS-green); format: binding, human; parameters: Binding of serum 6 to linear peptides of protein X1 of SARS-CoV Urbani / Binding of serum 37 to linear peptides of protein X1 of SARS-CoV Urbani / Binding of serum 6 to looped/cyclic peptide (PEPSCAN-ELISA) / Binding of serum 37 to looped/cyclic peptide (PEPSCAN-ELISA) / Binding of serum 37 to looped/cyclic peptides of protein X1 of SARS-CoV Urbani / Binding of serum 6 to linear peptides of protein X2 / Binding of serum 37 to linear peptides of protein X2 / Binding of serum 37 to looped/cyclic peptides of protein X2 of SARS-CoV Urbani / Binding of serum 6 to linear peptides of protein M of SARS-CoV Urbani / Binding of serum 37 to linear peptides of protein M of SARS-CoV Urbani / Binding of serum 6 to looped/cyclic peptides of protein M of SARS-CoV Urbani / Binding of serum 37 to looped/cyclic peptides of protein M of SARS-CoV Urbani / Binding of serum 6 to linear peptides of protein X3 of SARS-CoV Urbani / Binding of serum 37 to linear peptides of protein X3 of SARS-CoV Urbani / Binding of serum 37 to looped/cyclic peptides of protein X3 of SARS-CoV Urbani / Binding of serum 6 to linear peptides of protein X4 of SARS-CoV Urbani / Binding of serum 37 to linear peptides of protein X4 of SARS-CoV Urbani / Binding of serum 37 to looped/cyclic peptides of protein X4 of SARS-CoV Urbani / Binding of serum 6 to linear peptides of protein X5 of SARS-CoV Urbani / Binding of serum 37 to linear peptides of protein X5 of SARS-CoV Urbani / Binding of serum 37 to looped/cyclic peptides of protein X5 of SARS-CoV Urbani / Binding of serum 6 to linear peptides of protein N of SARS-CoV Urbani / Binding of serum 37 to linear peptides of protein N of SARS-CoV Urbani / Binding of serum 6 to linear peptide (PEPSCAN-ELISA) / Binding of serum 1a to looped/cyclic peptides of protein N of SARS-CoV Urbani / Binding of serum 1b to looped/cyclic peptides of protein N of SARS-CoV Urbani / Binding of serum 2 to looped/cyclic peptides of protein N of SARS-CoV Urbani / Binding of serum 6 to looped/cyclic peptides of protein N of SARS-CoV Urbani / Binding of serum 37 to looped/cyclic peptides of protein N of SARS-CoV Urbani / Binding of serum 62 to looped/cyclic peptides of protein N of SARS-CoV Urbani / Binding of serum London to looped/cyclic peptides of protein N of SARS-CoV Urbani / Binding of serum SARS-green to looped/cyclic peptides of protein N of SARS-CoV Urbani: unit not given here
[2] = tested on: rabbit serum obtained by immunizing a rabbit with the SARS-CoV strain Frankfurt 1; format: binding; parameters: Binding of a rabbit serum to linear peptides / Binding of a rabbit serum to looped peptides / Rabbit serum linear peptides / Rabbit serum looped peptides / Binding of a rabbit serum to linear peptides of protein N of SARS-CoV Urbani (Rabbit serum linear peptides) / Binding of a rabbit serum to looped/cyclic peptides of protein N of SARS-CoV Urbani (Rabbit serum looped peptides): unit not given here
[3] = tested on: control sera (pooled serum of ten healthy LUMC hospital workers; commercial negative donor pooled serum from the Dutch bloodbank); format: binding, human; parameters: Binding of Control serum LUMC to linear peptides / Binding of Control serum Blood-bank to linear peptides / Binding of Control serum LUMC to looped peptides / Binding of Control Serum Blood-Bank to Looped peptides / Binding of Control serum LUMC to linear peptides of the protein M of SARS-CoV Urbani / Binding of Control serum Blood-bank to linear peptides of the protein M of SARS-CoV Urbani / Binding of Control serum LUMC to looped peptides of the protein M of SARS-CoV Urbani / Binding of Control Serum Blood-Bank to Looped peptides of the protein M of SARS-CoV Urbani: unit not given here
[4] = tested on: recombinant human anti-SARS-CoV antibody 03-018; format: binding; parameters: Binding of antibody 03-018 to linear peptides of the N protein of SARS-CoV Urbani / Binding of antibody 03-018 to looped/cyclic peptides of the N protein of SARS-CoV Urbani: unit not given here

Sequence | Binding of serum 1a to linear peptides of protein N of SARS-CoV Urbani [1] | Binding of serum 1a to looped/cyclic peptides of protein N of SARS-CoV Urbani [1] | Binding of serum 1b to linear peptides of protein N of SARS-CoV Urbani [1] | Binding of serum 1b to looped/cyclic peptides of protein N of SARS-CoV Urbani [1] | Binding of serum 2 to linear peptides of protein N of SARS-CoV Urbani [1] | Binding of serum 2 to looped/cyclic peptides of protein N of SARS-CoV Urbani [1] | Binding of serum 6 to linear peptides of protein N of SARS-CoV Urbani [1] | Binding of serum 6 to looped/cyclic peptides of protein N of SARS-CoV Urbani [1] | Binding of serum 37 to linear peptides of protein N of SARS-CoV Urbani [1] | Binding of serum 37 to looped/cyclic peptides of protein N of SARS-CoV Urbani [1] | Binding of serum 62 to linear peptides of protein N of SARS-CoV Urbani [1] | Binding of serum 62 to looped/cyclic peptides of protein N of SARS-CoV Urbani [1] | Binding of serum London to linear peptides of protein N of SARS-CoV Urbani [1] | Binding of serum London to looped/cyclic peptides of protein N of SARS-CoV Urbani [1] | Binding of serum SARS-green to looped/cyclic peptides of protein N of SARS-CoV Urbani [1] | Binding of serum SARS-yellow to looped/cyclic peptides of protein N of SARS-CoV Urbani [1] | Binding of a rabbit serum to linear peptides of protein N of SARS-CoV Urbani (Rabbit serum linear peptides) [2] | Binding of a rabbit serum to looped/cyclic peptides of protein N of SARS-CoV Urbani (Rabbit serum looped peptides) [2] | Binding of antibody 03-018 to linear peptides of the N protein of SARS-CoV Urbani [4] | Binding of antibody 03-018 to looped/cyclic peptides of the N protein of SARS-CoV Urbani [4] | other results
TLLPAADMDDFSRQL | 0.3 | 0.4 | 0.2 | 0.2 | 0.2 | 0.5 | 0.4 | 0.1 | 1.0 | 0.4 | 0.7 | 0.1 | 0.6 | 0.2 | 0.0 | 0.4 | 0.1 | 0.0 | 0.1 | 0.1 | Binding of serum SARS-green to linear peptides of protein N of SARS-CoV Urbani [1]: 0.7; Binding of serum SARS-yellow to linear peptides of protein N of SARS-CoV Urbani [1]: 0.7; Control Serum Blood-Bank Looped peptides [3]: 0.5; Control serum Blood-bank linear peptides [3]: 0.7; Control serum LUMC linear peptides [3]: 0.8; Control serum LUMC looped peptides [3]: 0.4
FKDNVILLNKHIDAY | 0.2 | 0.5 | 0.1 | 0.3 | 0.2 | 0.5 | 0.2 | 0.3 | 0.6 | 0.8 | 0.6 | 0.8 | 0.5 | 0.5 | 0.2 | 0.5 | 0.1 | 0.5 | 0.1 | 0.2 | Binding of serum SARS-green to linear peptides of protein N of SARS-CoV Urbani [1]: 0.2; Binding of serum SARS-yellow to linear peptides of protein N of SARS-CoV Urbani [1]: 0.7; Control Serum Blood-Bank Looped peptides [3]: 0.8; Control serum Blood-bank linear peptides [3]: 0.6; Control serum LUMC linear peptides [3]: 0.5; Control serum LUMC looped peptides [3]: 0.8
GPEQTQGNFGDQDLI |  | 0.4 |  | 0.4 |  | 0.4 |  | 0.2 |  | 0.6 |  | 0.4 |  | 0.3 | 0.9 | 0.6 | 0.2 | 0.3 | 0.1 | 0.2 | Recognition of the peptide by sera of SARS-CoV infected individuals, and form (linear, looped/cyclic) in which it is recognized [1]: recognized in linear form; Binding of Control Serum Blood-Bank to Looped peptides [3]: 0.5; Binding of Control serum Blood-bank to linear peptides [3]: 0.8; Binding of Control serum LUMC to linear peptides [3]: 0.8; Binding of Control serum LUMC to looped peptides [3]: 0.6
STDNNQNGGRNGARP | 0.2 | 0.3 | 0.1 | 0.2 | 0.2 | 0.3 | 0.1 | 0.2 | 0.8 | 0.5 | 0.7 | 0.2 | 0.5 | 0.3 | 0.4 | 0.3 | 0.1 | 0.2 | 0.2 | 0.2 | Binding of serum SARS-green to linear peptides of protein N of SARS-CoV Urbani [1]: 0.4; Binding of serum SARS-yellow to linear peptides of protein N of SARS-CoV Urbani [1]: 0.6; Binding of Control Serum Blood-Bank to Looped peptides [3]: 0.5; Binding of Control serum Blood-bank to linear peptides [3]: 0.7; Binding of Control serum LUMC to linear peptides [3]: 0.6; Binding of Control serum LUMC to looped peptides [3]: 0.5
TQGNFGDQDLIRQGT |  | 0.4 |  | 0.3 |  | 0.4 |  | 0.2 |  | 0.7 |  | 0.7 |  | 0.5 | 0.5 | 0.6 | 0.2 | 0.6 | 0.1 | 0.2 | Binding of serum 1a to linear peptide (PEPSCAN-ELISA) [1]: 0.3; Binding of serum 1b to linear peptide (PEPSCAN-ELISA) [1]: 0.2; Binding of serum 2 to linear peptide (PEPSCAN-ELISA) [1]: 0.2; Binding of serum 6 to linear peptide (PEPSCAN-ELISA) [1]: 0.2; Binding of serum 37 to linear peptide (PEPSCAN-ELISA) [1]: 0.9; Binding of serum 62 to linear peptide (PEPSCAN-ELISA) [1]: 0.8; Binding of serum London to linear peptide (PEPSCAN-ELISA) [1]: 0.6; Binding of serum SARS-green to linear peptide (PEPSCAN-ELISA) [1]: 0.6; Binding of serum SARS-yellow to linear peptide (PEPSCAN-ELISA) [1]: 0.6; Binding of Control Serum Blood-Bank to Looped peptides [3]: 0.8; Binding of Control serum Blood-bank to linear peptides [3]: 0.8; Binding of Control serum LUMC to linear peptides [3]: 0.9; Binding of Control serum LUMC to looped peptides [3]: 0.8
